Laboratory results published in publication PMC12631873 (Advanced Science, 2025).
Square brackets hold non-standard residues; d marks the D form. Peptide text beside a SMILES is read from it. * marks the point of attachment. X1 = CN1/C(=C/C=C/C=C/C2=[N+](CCCCCC(=O)*)c3ccc(S(=O)(=O)[O-])cc3C2(C)C)C(C)(C)c2cc(S(=O)(=O)O)ccc21; Hyp = O=C(O)[C@@H]1C[C@@H](O)CN1; Nlys = NCCCCNCC(=O)O; Ahx = NCCCCCC(=O)O

What was measured:
[1] = Serum stability test (HPLC); format: in vitro ADME, mouse; conditions: 37 °C, HPLC UV 646 nm, n = 3; for degradation in serum (in words): 25% v/v mouse serum, 24 h and even after 48 h
Protocol: Cy5‐labeled peptidomimetic probes (10 nmol) were incubated in 25% v/v mouse serum (Biosharp, BL1053A diluted in 1× PBS) at 37 °C. Aliquots (200 µL) were taken periodically at 0 (deadtime: ≈10 min), 2, 24, and 48 h, and added to 400 µL of 3.75% trichloroacetic acid in acetonitrile at 4 °C. Then, all samples were centrifuged to remove the precipitated serum proteins at 13800 g for 10 min at 4 °C. The supernatant (150 µL) was taken to mix with 550 µL of water (with 0.1% TFA) to centrifuge again at 2630 g for 5 min at 4 °C. Five microliter of the supernatant was mixed with 200 µL of water containing 0.1% TFA as the final samples for HPLC analysis at room temperature monitored by absorbance at 646 nm with the integral area of the intact fraction recorded. The peak area for the 10 min time point was designated as 100% intact, and each peak area at successive time points was normalized to the 10 min peak to calculate the percent compound remaining. All the experiments were repeated three times.

[2] = system: rat chondrocytes; experiment: CCK-8 cell viability assay on rat chondrocytes; format: cell-based; conditions: n = 4 wells
Protocol: The cultures were maintained under standard conditions of 37 °C and 5% CO2. Chondrocytes collected from the articular cartilage of Sprague‐Dawley (SD) rats (purchased from Jennio Biotech, JNO‐720) were cultured in DMEM medium (Precell, PM150210). Human venous endothelial cells (HUVECs, purchased from iCell, iCell‐h110) were cultured in HUVEC medium (iCell, iCell‐h110‐001b). Both cells were seeded in 96‐well plates at a density of 5000 cells per well. The medium was supplemented with 10% fetal bovine serum (FBS, Precell, 164210) and penicillin‐streptomycin (1:100 diluted from a 100× stock solution, ThermoFisher, 15140122) to support cell growth and prevent bacterial contamination. […] Cell viability was assessed using the CCK‐8 assay kit (GLPBIO, GK10001−5) according to the manufacturer's instructions. After further incubation for 4 h, the optical density (OD) of the CCK‐8 solution was measured at 450 nm using a microplate reader (PerkinElmer, EnVision). […] The fluorescence images were obtained using an EVOS M7000 imaging system (Light cubes: GFP and RFP, Objective: 10×). A microscopic image was taken from the live (Calcein AM) staining of each well, and the total fluorescence signals were quantified for each image. The mean fluorescence level of each probe's group was normalized to the blank control group to estimate the relative cell viability. […]

[3] = Routine (whole) blood tests after repeated dosing; format: in vivo, mouse; conditions: C57BL/6J mice, 3 weekly i.v. doses of 2 nmol over 14 days, n = 5
Protocol: Whole blood tests: Each C57BL/6J mouse (6–8 weeks old) was intravenously injected with 100 µL of PBS buffer or with each peptide or peptoid probe (2 nmol in 100 µL 1× PBS buffer per mouse) on days 0, 7, and 14. The mice were sacrificed on day 15, 24 h after the final injection. The heart, liver, spleen, lungs, and kidneys were collected from each mouse and processed into formalin‐fixed paraffin‐embedded sections for histological evaluation with H&E staining. Whole blood was collected. Both H&E and blood sample analyses were performed by Wuhan Servicebio.

Compound | degradation in serum (in words) [1] | cytotoxicity to chondrocytes over 72 h (CCK-8) ([2]; tested concentrations 0-40 µM, 72 h) | routine blood analyses vs PBS control group [3] | intact compound remaining after 2 h serum incubation ([1]; 25% v/v mouse serum in 1× PBS, 10 nmol probe, peak area normalized to 10 min) | cytotoxicity to cultured chondrocytes (CCK8), in words ([2]; 0-40 µM, 24 h)
CN1/C(=C/C=C/C=C/C2=[N+](CCCCCC(=O)NCCCCCC(=O)N(CCCCN)CC(=O)N3C[C@H](O)C[C@H]3C(=O)N(CCCCN)CC(=O)N3C[C@H](O)C[C@H]3C(=O)N(CCCCN)CC(=O)N3C[C@H](O)C[C@H]3C(=O)N(CCCCN)CC(=O)N3C[C@H](O)C[C@H]3C(=O)N(CCCCN)CC(=O)N3C[C@H](O)C[C@H]3C(=O)N(CCCCN)CC(=O)N3C[C@H](O)C[C@H]3C(=O)N(CCCCN)CC(=O)N3C[C@H](O)C[C@H]3C(N)=O)c3ccc(S(=O)(=O)[O-])cc3C2(C)C)C(C)(C)c2cc(S(=O)(=O)O)ccc21 [Cy5‐(NlysO)7] ({X1-Ahx}-[Nlys][Hyp][Nlys][Hyp][Nlys][Hyp][Nlys][Hyp][Nlys][Hyp][Nlys][Hyp][Nlys][Hyp]-NH2) | hardly degraded | did not show cytotoxicity | None of the measurements | – | –
CN1/C(=C/C=C/C=C/C2=[N+](CCCCCC(=O)NCCCCCC(=O)N[C@@H](CCCNC(=N)N)C(=O)N[C@@H](CCCNC(=N)N)C(=O)N[C@@H](CCCNC(=N)N)C(=O)N[C@@H](CCCNC(=N)N)C(=O)N[C@@H](CCCNC(=N)N)C(=O)N[C@@H](CCCNC(=N)N)C(=O)N[C@@H](CCCNC(=N)N)C(=O)N[C@@H](CCCNC(=N)N)C(N)=O)c3ccc(S(=O)(=O)[O-])cc3C2(C)C)C(C)(C)c2cc(S(=O)(=O)O)ccc21 [Cy5‐R8, reference compound] | extremely unstable | – | – | no intact R8 peptide remained | significant cytotoxicity
